Columns and labels:
JAK1 = JAK1 (Homo sapiens (Human), UniProt P23458); assay: LanthaScreen JAK biochemical assay (JAK1)
JAK2 = JAK2 (Homo sapiens (Human), UniProt O60674); assay: LanthaScreen JAK biochemical assay (JAK2)
JAK3 = JAK3 (Homo sapiens (Human), UniProt P52333); assay: LanthaScreen JAK biochemical assay (JAK3)
[1] = test system: IL-4 induced STAT6 phosphorylation in THP-1 human monocytic cells; assay: Cellular JAK potency assay, THP-1
Tyk2 = Tyk2 (Homo sapiens (Human), UniProt P29597); assay: LanthaScreen JAK biochemical assay (Tyk2)
[2] = test system: IL-13 induced STAT6 phosphorylation in BEAS-2B human lung epithelial cells; assay: AlphaScreen cellular JAK potency assay, BEAS-2B
[3] = IL-4 induced STAT6 phosphorylation, THP-1 cells
[4] = BEAS-2B cells, IL-13 induced STAT6 phosphorylation
[5] = THP-1 cells, IL-4 induced STAT6 phosphorylation

JAK2, sequence (O60674 whole entry): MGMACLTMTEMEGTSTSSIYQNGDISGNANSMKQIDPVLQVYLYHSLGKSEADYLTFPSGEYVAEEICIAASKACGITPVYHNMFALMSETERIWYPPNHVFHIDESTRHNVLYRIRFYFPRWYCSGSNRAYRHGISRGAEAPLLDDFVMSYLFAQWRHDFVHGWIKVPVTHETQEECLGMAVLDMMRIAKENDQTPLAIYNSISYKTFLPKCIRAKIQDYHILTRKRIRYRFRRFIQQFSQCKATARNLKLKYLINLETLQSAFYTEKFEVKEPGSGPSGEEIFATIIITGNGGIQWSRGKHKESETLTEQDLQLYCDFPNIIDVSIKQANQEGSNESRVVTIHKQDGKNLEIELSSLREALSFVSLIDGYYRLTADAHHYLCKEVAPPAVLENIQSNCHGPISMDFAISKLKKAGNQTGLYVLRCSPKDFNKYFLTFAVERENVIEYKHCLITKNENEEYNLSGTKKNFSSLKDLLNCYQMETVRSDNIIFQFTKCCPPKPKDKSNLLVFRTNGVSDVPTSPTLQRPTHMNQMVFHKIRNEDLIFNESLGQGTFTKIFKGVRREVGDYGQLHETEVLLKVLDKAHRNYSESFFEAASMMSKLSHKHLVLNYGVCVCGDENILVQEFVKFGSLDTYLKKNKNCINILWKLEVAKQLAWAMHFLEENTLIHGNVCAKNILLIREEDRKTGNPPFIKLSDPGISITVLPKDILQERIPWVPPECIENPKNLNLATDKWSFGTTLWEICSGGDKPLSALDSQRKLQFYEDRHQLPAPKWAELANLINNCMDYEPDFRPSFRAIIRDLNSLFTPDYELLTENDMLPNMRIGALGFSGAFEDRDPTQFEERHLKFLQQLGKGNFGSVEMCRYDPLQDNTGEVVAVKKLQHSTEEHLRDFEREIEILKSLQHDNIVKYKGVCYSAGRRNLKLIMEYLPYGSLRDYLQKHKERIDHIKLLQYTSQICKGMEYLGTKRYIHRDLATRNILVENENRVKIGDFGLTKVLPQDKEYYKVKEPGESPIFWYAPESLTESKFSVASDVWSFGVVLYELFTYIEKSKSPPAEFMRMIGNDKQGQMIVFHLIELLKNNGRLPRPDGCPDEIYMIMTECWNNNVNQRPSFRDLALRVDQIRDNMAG
Tyk2, sequence (P29597 whole entry): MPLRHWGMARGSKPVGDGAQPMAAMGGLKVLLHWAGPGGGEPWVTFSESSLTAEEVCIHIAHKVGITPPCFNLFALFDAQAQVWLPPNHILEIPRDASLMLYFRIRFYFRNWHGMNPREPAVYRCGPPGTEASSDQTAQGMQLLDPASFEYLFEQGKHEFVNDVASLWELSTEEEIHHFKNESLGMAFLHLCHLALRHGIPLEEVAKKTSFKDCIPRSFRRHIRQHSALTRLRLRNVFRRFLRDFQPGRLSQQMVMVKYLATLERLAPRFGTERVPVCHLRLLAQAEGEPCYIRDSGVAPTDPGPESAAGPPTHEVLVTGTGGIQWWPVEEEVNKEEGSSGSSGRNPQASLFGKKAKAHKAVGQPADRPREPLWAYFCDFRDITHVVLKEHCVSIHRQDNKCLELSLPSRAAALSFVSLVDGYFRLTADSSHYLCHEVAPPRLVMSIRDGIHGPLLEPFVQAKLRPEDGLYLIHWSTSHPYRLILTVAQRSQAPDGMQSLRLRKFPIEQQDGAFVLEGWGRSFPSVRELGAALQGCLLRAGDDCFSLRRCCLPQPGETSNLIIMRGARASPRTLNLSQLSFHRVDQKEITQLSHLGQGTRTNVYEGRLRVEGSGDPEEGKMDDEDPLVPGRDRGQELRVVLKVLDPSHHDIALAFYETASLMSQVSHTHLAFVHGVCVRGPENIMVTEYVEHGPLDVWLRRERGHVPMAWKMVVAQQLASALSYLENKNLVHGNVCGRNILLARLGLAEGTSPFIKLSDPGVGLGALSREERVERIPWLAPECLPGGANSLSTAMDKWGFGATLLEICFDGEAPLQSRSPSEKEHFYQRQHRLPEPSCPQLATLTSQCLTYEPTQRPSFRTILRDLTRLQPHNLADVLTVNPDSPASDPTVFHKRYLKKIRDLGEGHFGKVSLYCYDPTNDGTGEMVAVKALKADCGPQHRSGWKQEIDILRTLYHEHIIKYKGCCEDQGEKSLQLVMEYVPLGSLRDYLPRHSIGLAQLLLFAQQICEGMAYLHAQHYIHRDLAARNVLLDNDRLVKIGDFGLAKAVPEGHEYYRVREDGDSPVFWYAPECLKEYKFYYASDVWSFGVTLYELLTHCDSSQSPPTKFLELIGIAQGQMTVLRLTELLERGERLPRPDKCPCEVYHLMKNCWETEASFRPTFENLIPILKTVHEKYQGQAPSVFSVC
JAK1, sequence (P23458 whole entry): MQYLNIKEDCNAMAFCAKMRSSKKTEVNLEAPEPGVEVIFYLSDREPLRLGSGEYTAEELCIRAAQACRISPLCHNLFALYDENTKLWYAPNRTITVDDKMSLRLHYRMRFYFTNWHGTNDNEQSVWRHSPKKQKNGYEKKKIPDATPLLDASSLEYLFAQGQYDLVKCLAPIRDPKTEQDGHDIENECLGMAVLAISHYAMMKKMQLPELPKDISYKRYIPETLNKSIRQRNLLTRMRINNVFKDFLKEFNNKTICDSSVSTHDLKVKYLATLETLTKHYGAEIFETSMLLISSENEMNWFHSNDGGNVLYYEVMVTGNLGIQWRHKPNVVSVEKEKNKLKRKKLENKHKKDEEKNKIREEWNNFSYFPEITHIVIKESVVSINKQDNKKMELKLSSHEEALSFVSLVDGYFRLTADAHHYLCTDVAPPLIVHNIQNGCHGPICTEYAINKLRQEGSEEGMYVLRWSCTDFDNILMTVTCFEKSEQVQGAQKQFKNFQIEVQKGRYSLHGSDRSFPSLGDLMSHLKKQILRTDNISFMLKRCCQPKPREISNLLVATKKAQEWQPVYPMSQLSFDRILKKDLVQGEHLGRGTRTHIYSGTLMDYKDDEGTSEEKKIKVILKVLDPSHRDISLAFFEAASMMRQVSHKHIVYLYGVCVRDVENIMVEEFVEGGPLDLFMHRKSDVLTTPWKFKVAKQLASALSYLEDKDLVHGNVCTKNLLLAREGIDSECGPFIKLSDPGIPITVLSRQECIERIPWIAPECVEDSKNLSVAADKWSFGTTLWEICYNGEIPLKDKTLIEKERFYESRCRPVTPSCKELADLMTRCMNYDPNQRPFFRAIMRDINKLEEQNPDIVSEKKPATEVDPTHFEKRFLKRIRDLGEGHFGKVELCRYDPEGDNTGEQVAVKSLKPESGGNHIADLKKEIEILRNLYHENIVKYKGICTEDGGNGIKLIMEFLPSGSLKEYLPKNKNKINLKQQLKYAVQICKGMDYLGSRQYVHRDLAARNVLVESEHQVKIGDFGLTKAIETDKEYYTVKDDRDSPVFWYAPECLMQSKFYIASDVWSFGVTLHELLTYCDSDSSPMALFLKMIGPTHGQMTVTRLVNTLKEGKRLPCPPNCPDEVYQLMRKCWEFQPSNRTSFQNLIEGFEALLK

## CCC(C)C(=O)N1C2CCCC1CC(Nc1nc(Nc3cc(C)[nH]n3)cc3ncccc13)C2 (stereo not shown) [Example 2-18]
JAK1
  JAK 1 (pKi): B (B represents a pKi value between 9 and 10 (Ki between 1 nM and 0.1 nM))
JAK2
  JAK 2 (pKi): B (B represents a pKi value between 9 and 10 (Ki between 1 nM and 0.1 nM))
JAK3
  JAK 3 (pKi): C (C represents a pKi value between 7 and 9 (Ki between 100 nM and 1 nM))
[1]; [3]
  THP-1 IL4 pIC50: A (A represents a pEC50 value≥7.5 (EC50≤32 nM))
Tyk2
  Tyk 2 (pKi): B (B represents a pKi value between 9 and 10 (Ki between 1 nM and 0.1 nM))

## Cc1cc(Nc2cc3ncccc3c(N[C@@H]3C[C@H]4CCC[C@@H](C3)N4C(=O)OCC3CC3)n2)n[nH]1 [Example 3-10]
JAK1
  JAK 1 (pKi): B (B represents a pKi value between 9 and 10 (Ki between 1 nM and 0.1 nM))
JAK2
  JAK 2 (pKi): B (B represents a pKi value between 9 and 10 (Ki between 1 nM and 0.1 nM))
[2]; IL-13 induced STAT6 phosphorylation, BEAS-2B cells
  BEAS2B pIC50: B (B represents a pEC50 value between 6.7 and 7.5 (EC50 between 200 nM and 32 nM))
JAK3
  JAK 3 (pKi): C (C represents a pKi value between 7 and 9 (Ki between 100 nM and 1 nM))
Tyk2
  Tyk 2 (pKi): B (B represents a pKi value between 9 and 10 (Ki between 1 nM and 0.1 nM))

## Cc1cc(Nc2cc3nc(CN4CCC(F)(F)CC4)ccc3c(N[C@@H]3C[C@H]4CC[C@@H](C3)N4CC(C)C)n2)n[nH]1 [Example 5-34]
JAK1
  JAK 1 (pKi): B (B represents a pKi value between 9 and 10 (Ki between 1 nM and 0.1 nM))
JAK2
  JAK 2 (pKi): B (B represents a pKi value between 9 and 10 (Ki between 1 nM and 0.1 nM))
JAK3
  JAK 3 (pKi): C (C represents a pKi value between 7 and 9 (Ki between 100 nM and 1 nM))
[1]; [3]
  THP-1 IL4 pIC50: B (B represents a pEC50 value between 6.7 and 7.5 (EC50 between 200 nM and 32 nM))
Tyk2
  Tyk 2 (pKi): B (B represents a pKi value between 9 and 10 (Ki between 1 nM and 0.1 nM))

## Cc1cc(Nc2cc3nc(CS(C)(=O)=O)ccc3c(N[C@@H]3C[C@H]4CC[C@@H](C3)N4CCC(F)(F)F)n2)n[nH]1 [Example 5-43]
JAK1
  JAK 1 (pKi): B (B represents a pKi value between 9 and 10 (Ki between 1 nM and 0.1 nM))
JAK2
  JAK 2 (pKi): B (B represents a pKi value between 9 and 10 (Ki between 1 nM and 0.1 nM))
JAK3
  JAK 3 (pKi): C (C represents a pKi value between 7 and 9 (Ki between 100 nM and 1 nM))
[1]; [3]
  THP-1 IL4 pIC50: B (B represents a pEC50 value between 6.7 and 7.5 (EC50 between 200 nM and 32 nM))
Tyk2
  Tyk 2 (pKi): B (B represents a pKi value between 9 and 10 (Ki between 1 nM and 0.1 nM))

## Cc1cnc2cc(Nc3cc(C)[nH]n3)nc(N[C@@H]3C[C@H]4CC[C@@H](C3)N4CCC#N)c2c1 [Example 6-1]
JAK1
  JAK 1 (pKi): B (B represents a pKi value between 9 and 10 (Ki between 1 nM and 0.1 nM))
JAK2
  JAK 2 (pKi): B (B represents a pKi value between 9 and 10 (Ki between 1 nM and 0.1 nM))
[2]; [4]
  BEAS2B pIC50: A (A represents a pEC50 value≥7.5 (EC50≤32 nM))
JAK3
  JAK 3 (pKi): C (C represents a pKi value between 7 and 9 (Ki between 100 nM and 1 nM))
[1]; [5]
  THP-1 IL4 pIC50: A (A represents a pEC50 value≥7.5 (EC50≤32 nM))
Tyk2
  Tyk 2 (pKi): B (B represents a pKi value between 9 and 10 (Ki between 1 nM and 0.1 nM))

## Cc1cnc2cc(Nc3cc(C)[nH]n3)nc(N[C@@H]3C[C@H]4CC[C@@H](C3)N4S(C)(=O)=O)c2c1 [Example 6-5]
JAK1; read-out: JAK 1 (pKi) (converted)
  Ki: 0.1 to 1 nM
JAK2
  JAK 2 (pKi): A (A represents a pKi value≥10 (Ki≤0.1 nM))
[2]; Homo sapiens, BEAS-2B, read-out: BEAS2B pIC50 (converted)
  IC50: < 31.6 nM
JAK3; read-out: JAK 3 (pKi) (converted)
  Ki: 1 to 100 nM
[1]; Homo sapiens, THP-1, read-out: THP-1 IL4 pIC50 (converted)
  IC50: < 31.6 nM
Tyk2; read-out: Tyk 2 (pKi) (converted)
  Ki: 0.1 to 1 nM

## Cc1cnc2cc(Nc3cc(C)[nH]n3)nc(N[C@@H]3C[C@H]4CCC[C@@H](C3)N4Cc3ccncc3)c2c1 [Example 6-10]
JAK1
  JAK 1 (pKi): B (B represents a pKi value between 9 and 10 (Ki between 1 nM and 0.1 nM))
JAK2
  JAK 2 (pKi): B (B represents a pKi value between 9 and 10 (Ki between 1 nM and 0.1 nM))
JAK3
  JAK 3 (pKi): C (C represents a pKi value between 7 and 9 (Ki between 100 nM and 1 nM))
[1]; [5]
  THP-1 IL4 pIC50: B (B represents a pEC50 value between 6.7 and 7.5 (EC50 between 200 nM and 32 nM))
Tyk2
  Tyk 2 (pKi): B (B represents a pKi value between 9 and 10 (Ki between 1 nM and 0.1 nM))

## COc1cnc2cc(Nc3cc(C)[nH]n3)nc(N[C@@H]3C[C@H]4CC[C@@H](C3)N4S(=O)(=O)CCC#N)c2c1 [Example 6-22]
JAK1
  JAK 1 (pKi): B (B represents a pKi value between 9 and 10 (Ki between 1 nM and 0.1 nM))
JAK2
  JAK 2 (pKi): B (B represents a pKi value between 9 and 10 (Ki between 1 nM and 0.1 nM))
[2]; [4]
  BEAS2B pIC50: B (B represents a pEC50 value between 6.7 and 7.5 (EC50 between 200 nM and 32 nM))
JAK3
  JAK 3 (pKi): C (C represents a pKi value between 7 and 9 (Ki between 100 nM and 1 nM))
Tyk2
  Tyk 2 (pKi): B (B represents a pKi value between 9 and 10 (Ki between 1 nM and 0.1 nM))

## COc1cnc2cc(Nc3cc(C)[nH]n3)nc(NC3CC4CCCC(C3)N4C(=O)C(C)O)c2c1 (stereo not shown) [Example 6-27]
JAK1
  JAK 1 (pKi): B (B represents a pKi value between 9 and 10 (Ki between 1 nM and 0.1 nM))
JAK2
  JAK 2 (pKi): B (B represents a pKi value between 9 and 10 (Ki between 1 nM and 0.1 nM))
JAK3
  JAK 3 (pKi): C (C represents a pKi value between 7 and 9 (Ki between 100 nM and 1 nM))
[1]; [5]
  THP-1 IL4 pIC50: B (B represents a pEC50 value between 6.7 and 7.5 (EC50 between 200 nM and 32 nM))
Tyk2
  Tyk 2 (pKi): C (C represents a pKi value between 7 and 9 (Ki between 100 nM and 1 nM))

## CCC(C)C(=O)N1C2CCC1CC(Nc1nc(Nc3cc(C)[nH]n3)cc3ncc(C(=O)OC)cc13)C2 (stereo not shown) [Example 6-38]
JAK1
  JAK 1 (pKi): B (B represents a pKi value between 9 and 10 (Ki between 1 nM and 0.1 nM))
JAK2
  JAK 2 (pKi): B (B represents a pKi value between 9 and 10 (Ki between 1 nM and 0.1 nM))
JAK3
  JAK 3 (pKi): C (C represents a pKi value between 7 and 9 (Ki between 100 nM and 1 nM))
[1]; [5]
  THP-1 IL4 pIC50: B (B represents a pEC50 value between 6.7 and 7.5 (EC50 between 200 nM and 32 nM))
Tyk2
  Tyk 2 (pKi): C (C represents a pKi value between 7 and 9 (Ki between 100 nM and 1 nM))

## COC(=O)c1cnc2cc(Nc3cc(C)[nH]n3)nc(N[C@@H]3C[C@H]4CCC[C@@H](C3)N4C[C@H]3CCC(=O)O3)c2c1 [Example 6-49]
JAK1
  JAK 1 (pKi): B (B represents a pKi value between 9 and 10 (Ki between 1 nM and 0.1 nM))
JAK2
  JAK 2 (pKi): B (B represents a pKi value between 9 and 10 (Ki between 1 nM and 0.1 nM))
JAK3
  JAK 3 (pKi): C (C represents a pKi value between 7 and 9 (Ki between 100 nM and 1 nM))
[1]; [5]
  THP-1 IL4 pIC50: B (B represents a pEC50 value between 6.7 and 7.5 (EC50 between 200 nM and 32 nM))
Tyk2
  Tyk 2 (pKi): C (C represents a pKi value between 7 and 9 (Ki between 100 nM and 1 nM))

## Cc1cc(Nc2nc(NC3CC4CCC(C3)N4C(=O)C(C)O)c3cccnc3c2F)n[nH]1 (stereo not shown) [Example 8-8]
JAK1
  JAK 1 (pKi): C (C represents a pKi value between 7 and 9 (Ki between 100 nM and 1 nM))
JAK2
  JAK 2 (pKi): C (C represents a pKi value between 7 and 9 (Ki between 100 nM and 1 nM))
JAK3
  JAK 3 (pKi): C (C represents a pKi value between 7 and 9 (Ki between 100 nM and 1 nM))
[1]; [5]
  THP-1 IL4 pIC50: C (C represents a pEC50 value<6.7 (EC50>200 nM))
Tyk2
  Tyk 2 (pKi): C (C represents a pKi value between 7 and 9 (Ki between 100 nM and 1 nM))

## Cc1cc(Nc2nc(N[C@@H]3C[C@H]4CCC[C@@H](C3)N4S(=O)(=O)c3cncc(F)c3)c3cccnc3c2F)n[nH]1 [Example 8-13]
JAK1
  JAK 1 (pKi): B (B represents a pKi value between 9 and 10 (Ki between 1 nM and 0.1 nM))
JAK2
  JAK 2 (pKi): B (B represents a pKi value between 9 and 10 (Ki between 1 nM and 0.1 nM))
[2]; [4]
  BEAS2B pIC50: A (A represents a pEC50 value≥7.5 (EC50≤32 nM))
JAK3
  JAK 3 (pKi): C (C represents a pKi value between 7 and 9 (Ki between 100 nM and 1 nM))
[1]; [5]
  THP-1 IL4 pIC50: B (B represents a pEC50 value between 6.7 and 7.5 (EC50 between 200 nM and 32 nM))

## Cc1cc(Nc2nc(N[C@@H]3C[C@H]4CCC[C@@H](C3)N4Cc3ccncc3)c3cccnc3c2F)n[nH]1 [Example 8-14]
JAK1
  JAK 1 (pKi): B (B represents a pKi value between 9 and 10 (Ki between 1 nM and 0.1 nM))
JAK2
  JAK 2 (pKi): B (B represents a pKi value between 9 and 10 (Ki between 1 nM and 0.1 nM))
[2]; [4]
  BEAS2B pIC50: A (A represents a pEC50 value≥7.5 (EC50≤32 nM))
JAK3
  JAK 3 (pKi): C (C represents a pKi value between 7 and 9 (Ki between 100 nM and 1 nM))
[1]; [5]
  THP-1 IL4 pIC50: A (A represents a pEC50 value≥7.5 (EC50≤32 nM))

## Cc1cc(Nc2nc(NC3CC4CCCC(C3)N4C(=O)C(C)O)c3cccnc3c2F)n[nH]1 (stereo not shown) [Example 8-16]
JAK1
  JAK 1 (pKi): B (B represents a pKi value between 9 and 10 (Ki between 1 nM and 0.1 nM))
JAK2
  JAK 2 (pKi): B (B represents a pKi value between 9 and 10 (Ki between 1 nM and 0.1 nM))
JAK3
  JAK 3 (pKi): C (C represents a pKi value between 7 and 9 (Ki between 100 nM and 1 nM))
[1]; [5]
  THP-1 IL4 pIC50: B (B represents a pEC50 value between 6.7 and 7.5 (EC50 between 200 nM and 32 nM))
Tyk2
  Tyk 2 (pKi): C (C represents a pKi value between 7 and 9 (Ki between 100 nM and 1 nM))

## Cc1cnc2c(F)c(Nc3cc(C)[nH]n3)nc(N[C@@H]3C[C@H]4CCC[C@@H](C3)N4S(=O)(=O)c3cccnc3)c2c1 [Example 8-24]
JAK1
  JAK 1 (pKi): B (B represents a pKi value between 9 and 10 (Ki between 1 nM and 0.1 nM))
JAK2
  JAK 2 (pKi): B (B represents a pKi value between 9 and 10 (Ki between 1 nM and 0.1 nM))
[2]; [4]
  BEAS2B pIC50: B (B represents a pEC50 value between 6.7 and 7.5 (EC50 between 200 nM and 32 nM))
JAK3
  JAK 3 (pKi): C (C represents a pKi value between 7 and 9 (Ki between 100 nM and 1 nM))
[1]; [5]
  THP-1 IL4 pIC50: B (B represents a pEC50 value between 6.7 and 7.5 (EC50 between 200 nM and 32 nM))
